SMILES strings stand for the structures.

Assay [1] relates to cerebral organoids. Put plainly: Immunostaining of cell aggregates after DAPT treatment. In kind it is cell-based, human. As for the experimental part:
Organoids were fixed with 4% paraformaldehyde for 30 minutes, subjected to dehydration reaction with 30% (w/v) sucrose in PBS, and embedded with O.C.T. compound (Sakura Finetek Japan Co., Ltd.). Frozen sections were prepared in a thickness of 16 μm by using a cryostat (CM1850, Leica Biosystems Nussloch GmbH). Permeabilization was performed with 0.3% or 2% (v/v) Triton-X100, and, as necessary, antigen retrieval reaction was performed. Blocking was performed with Block ACE (KAC Co., Ltd.), and double- or triple-label staining was then performed. Primary antibodies and secondary antibodies for use in immunostaining were diluted to recommended concentrations before use.
As illustrated by a scheme shown in FIG. 11(A), in step (ii), cerebral organoids were screened on day 33 after the initiation of induction of differentiation (Day 33), the culture medium was replaced with one obtained by adding 10 μM DAPT to the culture medium in step (2b), and suspension culture was performed at 37° C. under 5% CO2 for 3 days. As a result, cerebral cortical cell aggregates were obtained.
The cerebral cortical cell aggregates (Day 36) and high-purity cerebral cortical cell aggregates (Day 40) were further immunostained for the cortical layer V/VI progenitor cell (deep layer) marker Ctip2, the telencephalon marker Foxg1, the neural stem cell (radial glia) marker […], and the proliferative cell marker Ki67.
Organoids on Day 25, Day 32, Day 39, and Day 72 (the periods of induction of differentiation: about 4 weeks, 5 weeks, 6 weeks, and 10 weeks, respectively) were cultured in the presence or absence of DAPT for 3 days, and the organoids on Day 28 (4 wk), Day 42 (6 wk), and Day 75 (10 wk) were analyzed for different markers by immunostaining. […] Satb2 is a cortical layer II-IV progenitor cell (upper layer) marker.

In assay [2] the test system is cerebral organoids. Put plainly: Single-cell gene expression analysis of Rosettes organoids with or without DAPT. Type of assay: cell-based, human. The note with it: Rosettes organoids treated with DAPT for 3 days (DAPT+). As for the experimental part:
First, to prepare a single-cell suspension from an organoid, the organoid was separated into single cells with dispersing solution for neural cells (FUJIFILM Wako Pure Chemical Corporation) under recommended conditions. The dispersed cells were resuspended in HBSS supplemented with 10% (v/v) KSR and 10 μM Y-27632 (FUJIFILM Wako Pure Chemical Corporation) at a density of 1,000 cells/μL. Into a Chromium Next GEM Chip G (2000177 10X Genomics, Inc.), approximately 4,670 cells were loaded per channel, and treated with a Chromium controller to acquire Gel Beads-in-Emulsion (GEM). Libraries were produced by using Chromium Next GEM Single Cell 3′ Reagent Kits v3.1 (1000121; 10X Genomics, Inc.) in accordance with a protocol from the manufacturer (CG000204 Rev C). The sequences of the libraries were analyzed with Novaseq 6000 (Illumina, Inc.).
Cell Ranger pipeline was used for mapping of sequences in single-cell RNA-seq. GRCh38 human genome sequences were used as reference genome sequences. UMI count values acquired through analysis with a next-generation sequencer were analyzed by using Seurat R package. First, data of organoids were normalized by a Log-Normalize method, and then all the data of organoids were integrated. […]

The mark [3] stands for this setting: organoids Day 33, 10 μM DAPT for 3 days, Day 36.
Where [4] appears, read: organoids in week 4 to week 6, DAPT for 3 days.

On to `C[C@H](NC(=O)Cc1cc(F)cc(F)c1)C(=O)N[C@H](C(=O)OC(C)(C)C)c1ccccc1` [DAPT, N-[N-(3,5-difluorophenacetyl)-L-alanyl]-S-phenylglycine t-butyl ester], for which, in the assay with cerebral organoids [1] (setting [3]), the “cerebral cortex-like layered structure (immunostaining)” value is “no cerebral cortex-like layered structure was found” and the “expression of Ki67 (immunostaining)” value is reported as “almost no expression”. For the same compound, in the assay with cerebral organoids [1] (setting [4]), the “number of Ctip2/Bf1-co-positive cells” value is “increased number” and the “number of Ki67-positive cells” value is on record as “decreased number”. For the same compound, the “proportion of Ctip2-positive cells and that of Satb2-positive cells” value in the assay with cerebral organoids [1] (organoids in week 10, DAPT for 3 days) is listed as “no significant change”. Besides, the “cell population with expression of Pax6 and MKI67” value in the assay with cerebral organoids [2] is “largely shrunk”.
